The test system of data set [1] is CXCL8 (IL-8). As to the kind of experiment: Increase in expression of CXCL8 (IL-8) in THP-1 cells, human IL-8 ELISA of culture supernatant. It is filed as cell-based. The settings on record: for CXCL8 [IL-8] concentration (pg/μl, average ± deviation): THP-1 cells, 24 hours, supernatant. How it is done:
In RPMI (Hyclone, Thermo Scientific) medium to which 10% Fetal Bovine Serum was added, THP-1 cells, a human macrophage family, were suspended at a concentration of 1×10^5 cells/ml, and culture was conducted in a 5% CO2 humidified incubator at 37° C. The cultured THP-1 cells were inoculated into a 12 well plate by 1×10^6 cells/ml and stabilized for 30 minutes. Then, the culture solution was treated with a diacylglycerol lactone compound of the type shown in Table 2 below for 1 hour and then was treated with Gemcitabine (2 μg/ml) of a cell stimulator, and subsequent further incubation was conducted for 24 hours. Thereafter 1.5 ml of the culture supernatant was collected for each well and centrifuged (at 3000 rpm, 5 minutes) to recover the supernatant. The CXCL8 (IL-8) level in the recovered supernatant was measured according to the manual provided by the human IL-8 ELISA set (BD Biosciences). The day before ELISA was carried out, the IL-8 capture antibody was diluted in phosphate buffered saline, coated on a microwell, and then stored at 4° C. overnight. Each well was washed three times with a washing buffer solution and then blocked with 2% Bovine Serum Albumin (BSA) for 1 hour at room temperature. After washing with washing buffer solution three times, 100 μl of sample was dispensed into each well and left at room temperature for 2 hours. Detection antibody which was washed 3 times with washing buffer and diluted was dispensed into each well and allowed to react at room temperature for 1 hour and left at room temperature for 1 hour. Thereafter, the secondary HRP conjugated antibody was reacted at room temperature for 30 minutes, washed three times with a washing buffer, and treated with 50 μl of stop solution for each well, and then the optical density was measured at 450 nm with an ELISA microplate leader.

The test system of data set [2] is RAW264.7 cells. Description: Cytotoxicity assessment, cell viability by EZ-Cytox (WST), OD 450 nm. It is filed as cell-based, mouse. The settings on record: 100 μg/ml, 24 hours. How it is done: In DMEM (Dulbecco Modified Eagle Medium) medium with 10% Fetal Bovine Serum added, RAW264.7 cells, which are cells of the mouse macrophage family, were suspended at a concentration of 1×10^5 cells/ml, and then were inoculated into 96 well plates by 100 μl, and culture was conducted for 15 hours. […] According to the EZ-CYTOX (Daeillab_EZ-1000) manual for measuring the amount of living cells using WST, 10 μl of EZ-Cytox was added to each well and reacted for up to 2 hours from 30 minutes, and then an optical density (OD) at 450 nm was measured.

Setting [3] is: compound 100 μg/ml for 1 hour, then Gemcitabine 2 μg/ml.

SMILES strings stand for the structures.

`CCCCC/C=C\C/C=C\CCCCCCCC(=O)OCC1(COC(=O)CCCC)CCC(=O)O1` (racemic) [EC-A117]: the “CXCL8 [IL-8] concentration (pg/μl, average ± deviation)” value (“CXCL8 … (pg/μl, average ± deviation)” for short) in data set [1] (setting [3]) was 568.12 ± 8.21 pg/µL. For `CCCCC/C=C\C/C=C\CCCCCCCC(=O)OCC1(COC(=O)CC)CCC(=O)O1` (racemic) [EC-A115], in data set [1] (setting [3]), the “CXCL8 … (pg/μl, average ± deviation)” value worked out at 1202.80 ± 38.09 pg/µL.

Take `CCCCCCCCCCCCCCCC(=O)OCC1(COC(=O)C(C)CC)CCC(=O)O1` (stereo not shown) [EC-A133]: in data set [1] (setting [3]), the “CXCL8 … (pg/μl, average ± deviation)” value worked out at 1176.67 ± 29.42 pg/µL. Also, in data set [2], the RAW264.7 cell viability is given as 114.45 ± 3.46%. With `CCCCC/C=C\C/C=C\CCCCCCCC(=O)OCC1(COC(=O)C(C)C)CCC(=O)O1` (racemic) [EC-A124], the “CXCL8 … (pg/μl, average ± deviation)” value in data set [1] (setting [3]) came out at 663.45 ± 2.96 pg/µL. `CCCCC/C=C\C/C=C\CCCCCCCC(=O)OCC1(COC(=O)CCC)CCC(=O)O1` (racemic) [EC-A116]: the “CXCL8 … (pg/μl, average ± deviation)” value in data set [1] (setting [3]) was 865.54 ± 12.31 pg/µL. For the same molecule, the RAW264.7 cell viability in data set [2] is listed as 141.09 ± 5.01%.

Turning to `CCCCC/C=C\C/C=C\CCCCCCCC(=O)OCC1(COC(=O)CCCCCCCCCCC)CCC(=O)O1` (racemic) [EC-A121], the “CXCL8 … (pg/μl, average ± deviation)” value in data set [1] (setting [3]) turned out to be 215.38 ± 4.33 pg/µL. The RAW264.7 cell viability in data set [2] turned out to be 114.25 ± 33.11%. `CCCCCCCCCCCCCCCC(=O)OCC1(COC(=O)CCCCCCCCCCC)CCC(=O)O1` (stereo not shown) [EC-A136]: in data set [1] (setting [3]), the “CXCL8 … (pg/μl, average ± deviation)” value came out at 138.93 ± 2.96 pg/µL. Moreover, the RAW264.7 cell viability in data set [2] is listed as 95.54 ± 3.01%. With `CCCCCCCCCCCCCCCC(=O)OCC1(COC(=O)C2CC2)CCC(=O)O1` (stereo not shown) [EC-A134], in data set [1] (setting [3]), the “CXCL8 … (pg/μl, average ± deviation)” value came out at 1266.03 ± 2.05 pg/µL. Also, the RAW264.7 cell viability in data set [2] turned out to be 110.06 ± 4.19%. As to `CCCCC/C=C\C/C=C\CCCCCCCC(=O)OCC1(COC(=O)CCCCC)CCC(=O)O1` (racemic) [EC-A118], in data set [1] (setting [3]), the “CXCL8 … (pg/μl, average ± deviation)” value was 622.16 ± 6.61 pg/µL. Take `CCCCC/C=C\C/C=C\CCCCCCCC(=O)OCC1(COC(=O)CCCCCCCCCCCCC)CCC(=O)O1` (racemic) [EC-A122]: the “CXCL8 … (pg/μl, average ± deviation)” value in data set [1] (setting [3]) amounted to 190.06 ± 4.56 pg/µL. The RAW264.7 cell viability in data set [2] turned out to be 105.48 ± 3.92%. As for `Nc1ccn([C@@H]2O[C@H](CO)[C@@H](O)C2(F)F)c(=O)n1` [Gemcitabine, reference compound], the “secretion of CXCL8 (IL-8) chemokine, increase compared to the negative control group” value in data set [1] (THP-1 cells treated with Gemcitabine) is “about five”. Further, in data set [1] (Gemcitabine 2 μg/ml alone), the “CXCL8 … (pg/μl, average ± deviation)” value was determined as 101.83 ± 1.59 pg/µL. In the case of `CCCCCCCCCCCCCCCC(=O)OCC1(COC(=O)C2CCCCC2)CCC(=O)O1` (stereo not shown) [EC-A135], the “CXCL8 … (pg/μl, average ± deviation)” value in data set [1] (setting [3]) amounted to 310.87 ± 14.37 pg/µL. As for `CCCCCCCCCCCCCCCC(=O)OCC1(COC(=O)CCCCCCCCCCCCC)CCC(=O)O1` (stereo not shown) [EC-A137], the “CXCL8 … (pg/μl, average ± deviation)” value in data set [1] (setting [3]) amounted to 133.12 ± 8.43 pg/µL. Moreover, the RAW264.7 cell viability in data set [2] was determined as 93.87 ± 8.85%. Consider `CCCCCCCCCCCCCCCC(=O)OCC1(COC(=O)C(C)(C)C)CCC(=O)O1` (stereo not shown) [EC-A132], for which the “CXCL8 … (pg/μl, average ± deviation)” value in data set [1] (setting [3]) was 921.35 ± 52.46 pg/µL. Further, in data set [2], the RAW264.7 cell viability is on record as 96.58 ± 5.01%. For `CCCCCCCCCCCCCCCC(=O)OCC1(COC(=O)C(C)C)CCC(=O)O1` (racemic) [EC-A131], in that order: 1256.19 ± 15.96 pg/µL and 100.25 ± 14.78%. Regarding `CCCCC/C=C\C/C=C\CCCCCCCC(=O)OCC1(COC(=O)C2CC2)CCC(=O)O1` (racemic) [EC-A127], the “CXCL8 … (pg/μl, average ± deviation)” value in data set [1] (setting [3]) was found to be 532.32 ± 1.82 pg/µL.

`CCCCC/C=C\C/C=C\CCCCCCCC(=O)OCC1(COC(=O)CCCCCC)CCC(=O)O1` (racemic) [EC-A119]: in data set [1] (setting [3]), the “CXCL8 … (pg/μl, average ± deviation)” value worked out at 343.61 ± 7.75 pg/µL.

`CCCCC/C=C\C/C=C\CCCCCCCC(=O)OCC1(COC(=O)CCCCCCCC)CCC(=O)O1` (racemic) [EC-A120]: in data set [1] (setting [3]), the “CXCL8 … (pg/μl, average ± deviation)” value was 237.80 ± 3.64 pg/µL.

Regarding `CCCCC/C=C\C/C=C\CCCCCCCC(=O)OCC1(COC(=O)C2CCCCC2)CCC(=O)O1` (racemic) [EC-A128], in data set [1] (setting [3]), the “CXCL8 … (pg/μl, average ± deviation)” value came to 351.03 ± 7.75 pg/µL.

Turning to `CCCCC/C=C\C/C=C\CCCCCCCC(=O)OCC1(COC(=O)C(C)(C)C)CCC(=O)O1` (racemic) [EC-A125], the “CXCL8 … (pg/μl, average ± deviation)” value in data set [1] (setting [3]) is 252 ± 11.86 pg/µL.

On to `CCCCCC=CCC=CCCCCCCCC(=O)OCC1(COC(=O)C(C)CC)CCC(=O)O1` (mixture of isomers) [EC-A126], for which, in data set [1] (setting [3]), the “CXCL8 … (pg/μl, average ± deviation)” value stood at 352.96 ± 0.45 pg/µL.

For the origin of these results see US20210002242A1, “DIACYLGLYCEROL LACTONE COMPOUND, PREPARATION METHOD THEREFOR, AND IMMUNOSTIMULATOR CONTAINING SAME AS ACTIVE INGREDIENT” (priority 2018, published 2021).
